Literature values in patent US20230117236A1 (priority 2021, published 2023).

Test system: SARS-CoV-2
Conditions: treatment with 24 ppm of chlorine dioxide; within 10 seconds

[O][Cl+][O-] [chlorine dioxide]
SARS-CoV-2 inactivated: more than 99.99%
